Results published in US4349672A, “Cephalosporin derivatives” (Hoffmann-La Roche Inc., priority 1979, dated 1982).
Counter-ions that a name gives are not always drawn.

How the values were obtained:
Assay in all cases: Activity in vitro: minimum inhibitory concentration
Format in all cases: cell-based
Klebsiella pneumoniae = system: Klebsiella pneumoniae
Description: (§1) Activity in vitro: Minimum inhibitory concentration (μg/ml)

Enterobacter aerogenes = conditions: Klebsiella aerogenes
Description: as §1

Proteus mirabilis = system: Proteus mirabilis
Description: as §1

Serratia marcescens = system: Serratia marcescens
Description: as §1

Citrobacter freundii = system: Citrobacter freundii
Description: as §1

Streptococcus pyogenes = conditions: gram positive
Description: as §1

Escherichia coli = system: Escherichia coli
Description: as §1

Proteus inconstans = conditions: Providencia alcalifaciens, gram negative
Description: as §1

Acinetobacter anitratus = conditions: Acinetobacter calcoaceticus, gram negative
Description: as §1

Proteus vulgaris = system: Proteus vulgaris
Description: as §1

Proteus rettgeri = conditions: Providencia rettgeri, gram negative
Description: as §1

Enterobacter cloacae = system: Enterobacter cloacae
Description: as §1

[1] = Klebsiella pneumoniae Strain 1, gram negative
[2] = Klebsiella pneumoniae Strain 2, gram negative
[3] = Klebsiella pneumoniae Strain 3, gram negative
[4] = Enterobacter aerogenes Strain 1, gram negative
[5] = Enterobacter aerogenes Strain 2, gram negative
[6] = Proteus mirabilis Strain 1, gram negative
[7] = Proteus mirabilis Strain 2, gram negative
[8] = Serratia marcescens Strain 1, gram negative
[9] = Serratia marcescens Strain 2, gram negative
[10] = Citrobacter freundii Strain 1, gram negative
[11] = Citrobacter freundii Strain 2, gram negative
[12] = Escherichia coli Strain 1, gram negative
[13] = Escherichia coli Strain 2, gram negative
[14] = Escherichia coli Strain 3, gram negative
[15] = Escherichia coli Strain 4, gram negative
[16] = Proteus vulgaris Strain 1, gram negative
[17] = Proteus vulgaris Strain 2, gram negative
[18] = Proteus vulgaris Strain 3, gram negative
[19] = Enterobacter cloacae Strain 1, gram negative
[20] = Enterobacter cloacae Strain 2, gram negative

MIC (Klebsiella pneumoniae; [1]) [µg/mL]	MIC (Klebsiella pneumoniae; [2]) [µg/mL]	MIC (Klebsiella pneumoniae; [3]) [µg/mL]	MIC (Enterobacter aerogenes; [4]) [µg/mL]	MIC (Enterobacter aerogenes; [5]) [µg/mL]	MIC (Proteus mirabilis; [6]) [µg/mL]	MIC (Proteus mirabilis; [7]) [µg/mL]	MIC (Serratia marcescens; [8]) [µg/mL]	MIC (Serratia marcescens; [9]) [µg/mL]	MIC (Citrobacter freundii; [10]) [µg/mL]	MIC (Citrobacter freundii; [11]) [µg/mL]	MIC (Streptococcus pyogenes) [µg/mL]	MIC (Escherichia coli; [12]) [µg/mL]	MIC (Escherichia coli; [13]) [µg/mL]	MIC (Escherichia coli; [14]) [µg/mL]	MIC (Escherichia coli; [15]) [µg/mL]	MIC (Proteus inconstans) [µg/mL]	MIC (Acinetobacter anitratus) [µg/mL]	MIC (Proteus vulgaris; [16]) [µg/mL]	MIC (Proteus vulgaris; [17]) [µg/mL]	SMILES	also measured
0.1	0.025	0.1	0.19	0.1	0.025	0.39	0.39	0.19	0.19	0.05	1.6	0.025	0.19	0.1	0.1	≤ 0.006	25	0.1	0.1	CO/N=C(\C(=O)N[C@@H]1C(=O)N2C(C(=O)O)=C(CSc3nc(=O)c(O)nn3C)C[S@+]([O-])[C@H]12)c1csc(N)n1 [Derivative A, disodium salt of (6R,7R)-7-[2-(2-amino-4-thiazolyl)-2-[(Z)-methoxyimino]acetamido]-3-[[(2,5-dihydro-6-hydroxy-2-methyl-5-oxo-as-triazin-3-yl)thio]methyl]-8-oxo-5-thia-1-azabicyclo[4.2.0]oct-2-ene-2-carboxylic acid 5-(s)-oxide]	MIC (Proteus vulgaris; [18]): 0.05 µg/mL; MIC (Proteus rettgeri): ≤ 0.006 µg/mL; MIC (Enterobacter cloacae; [19]): 3.1 µg/mL; MIC (Enterobacter cloacae; [20]): 0.19 µg/mL
0.39	0.19	0.19	0.39	0.1	0.1	0.78	1.6	0.78	0.19	0.19	3.1	0.05	0.39	0.19	0.39	0.025	100	0.39	0.19	CO/N=C(\C(=O)N[C@@H]1C(=O)N2C(C(=O)O)=C(CSc3nc(=O)c(O)nn3C)CS(=O)(=O)[C@H]12)c1csc(N)n1 [Derivative B, disodium salt of (6R,7R)-7-[2-(2-amino-4-thiazolyl)-2-[(Z)-methoxyimino]acetamido]-3-[[(2,5-dihydro-6-hydroxy-2-methyl-5-oxo-as-triazin-3-yl)thio]methyl]-8-oxo-5-thia-1-azabicyclo[4.2.0]oct-2-ene-2-carboxylic acid 5,5-dioxide]	MIC (Proteus vulgaris; [18]): 0.19 µg/mL; MIC (Proteus rettgeri): 0.05 µg/mL; MIC (Enterobacter cloacae; [19]): 6.3 µg/mL; MIC (Enterobacter cloacae; [20]): 0.39 µg/mL
